What was measured:
Akt = test: Western blot analysis, Akt signaling by LPS signals; format: cell-based
Method: (§1) Cells were harvested, washed with 1×PBS, and suspended by adding a mixture of a protein extraction buffer (150 mM NaCl, 50 mM Tris-HCl pH 7.4, 5 mM EDTA pH 8.0, 1% NP-40) and a protease inhibitor cocktail. Then, the reaction was allowed to proceed in ice for 20 min, sonicated, and centrifuged (13,000 rpm, 30 min). The concentration of proteins in the supernatant was quantified by a BCA protein assay and proteins were separated on the basis of size on an SDS-PAGE gel. Thereafter, proteins were transferred to a PVDF membrane and blocked with skim milk for 1 h. Primary and secondary antibodies were coupled and photosensitized with ECL solution to determine the expression levels of desired proteins.

MAPK = test: Western blot analysis, MAPK signaling by LPS signals; format: cell-based
Method: as §1

mice [1] = test: Formalin test (5% formalin, hind foot sole); format: in vivo; parameters: formalin test pain response: unit not given beside the values
Method: 5% formalin was injected subcutaneously into the soles of the hind feet of mice. The mice licked their soles and shook their paws owing to formalin-induced pain. At 20-40 min post-injection (2nd phase), the mice again licked their soles or shook their paws. Pain felt for 5 min post-injection (1st phase) is the same level as the sensation of pain when the body is harmfully stimulated. Pain between 20 and 40 min (2nd phase) is mainly tonic inflammatory pain and is known to be very similar to pain after a big surgical operation.
30 min after pretreatment with the compound 3 (E-S) at concentrations of 10, 20, 40, and 80 mg/kg, formalin test was conducted to assess the analgesic efficacy of the compound 3. […] The analgesic efficacy of the compound 4 (E-A) was assessed in the same manner as that of the compound 3.

Raw 264.7 cells = test: Cell viability measurement (MTS); format: cell-based
Method: Raw 264.7 cells were plated in a 96-well cell culture plate (50,000 cells/well). The cell culture media were removed from the 96-well cell culture plate. 100 μl of MTS reagent (CellTiter 96 AQueous One Solution Cell Proliferation Assay, Promega) was added to each well and the reaction was allowed to proceed at 37° C. for 20 min. After the reaction was finished, the cell viability were determined by measuring the absorbance at a wavelength of 490 nm.

[2] = tested on: monosodium urate (MSU) models; test: Von-frey test in monosodium urate models; format: in vivo, mice; parameters: threshold values (Von-frey test): unit not given here; conditions: monosodium urate model; for threshold values (Von-frey test): basal
Method: 100 mg of uric acid and 60 μl of 10 N NaOH were dissolved in 20 ml of distilled water and the pH of the solution was adjusted to 7.2-7.4 with HCl (1 N) at 60° C. After stirring at room temperature for 5 days, the solution was plated in a 1 ml tube and stored for 4 days. The solution was vortexed overnight until needle-like crystals appeared. The solution was washed twice with 100% ethanol and centrifuged at 3000 rpm for 2 min. Finally, the MSU crystals were collected and dissolved in […] of endotoxin-free PBS. The resulting sample were injected intra-articularly into mice (MSU 300 μg/10 μl each) under anesthesia. At 24 h post-injection, pain or ankle swelling were measured to determine the analgesic efficacy of a test substance.
After damage to the sciatic nerve, allodynia induced by the mechanical stimulus was measured. Mice were housed in acrylic chambers on a steel mesh floor and acclimated for ≥60 min before testing. Continuous responses were evaluated using Von-frey filaments by the up-down method. The filaments were brought into vertical contact with the affected left soles and the contact was maintained for 5-6 sec. The response was considered to be positive when the mouse rapidly avoided the stimulus, startled or licked its sole. The Von-frey filaments were first used to stimulate the mice.
The analgesic efficacies of the test substances were evaluated in monosodium urate models. To this end, after oral administration of each test substance at concentrations of 10, 20, 40, and 80 mg/kg, threshold values were measured at different periods of time through Von-frey test.

mice [3] = test: Writhing test (1% acetic acid intraperitoneally); format: in vivo; conditions: for numbers of stretching and writhing movements: 30 min pretreatment
Method: In accordance with the most common method for measuring the analgesic efficacies of the test substances in the peripheral nerve based on abdominal contraction responses as indices, 1% acetic acid was administered intraperitoneally to mice to induce damage or pain of the abdominal peripheral vessels. After acetic acid administration, the behavioral profiles of the mice were observed and the numbers of stretching and writhing movements of the mice were counted to determine the analgesic efficacies of the test substances.
30 min after pretreatment with the compound 3 (E-S) at concentrations of 10, 20, 40, and 80 mg/kg, writhing test was conducted to assess the analgesic efficacy of the compound 3. As a result, the analgesic efficacy of the compound 3 was concentration-dependent (FIG. 4a and Table 4). The analgesic efficacy of the compound 4 (E-A) was assessed in the same manner as that of the compound 3.

mice [4] = test: Hot-plate test; format: in vivo; conditions: for response time to the thermal stimulus (hot-plate): 30 min pretreatment, in s (unit assumed)
Method: Hot-plate test was conducted using an electric heater to measure the analgesic activity of the test substances on the acute thermal stimulus. Experimental animals were injected with the test drugs and a vehicle (control) and were sequentially placed on an electric heater (hot-plate). The response time to the thermal stimulus ([…]) was defined as the time until the experimental animal licked their paws. Male mice weighing 22-25 g, aged 4-5 weeks, were used as the test animals (10 per group).
30 min after pretreatment with the compound 3 (E-S) at concentrations of 10, 20, 40, and 80 mg/kg, hot-plate test was conducted to assess the analgesic efficacy of the compound 3. […] The analgesic efficacy of the compound 4 (E-A) was assessed in the same manner as that of the compound 3.

SMILES: CC(=O)Oc1ccccc1C(=O)NC1=NCC2c3ccccc3Cc3ccccc3N12 (stereo not shown) [E-A, 2-((9,13b-dihydro-1H-dibenzo[c,f]imidazo[1,5-a]azepin-3-yl)carbamoyl)phenyl acetate]
- effect on Akt signaling by LPS signals (Akt): found to affect both MAPK signaling and Akt signaling by LPS signals and reduce the activity of proteins
- effect on MAPK signaling by LPS signals (MAPK): found to affect both MAPK signaling and Akt signaling by LPS signals and reduce the activity of proteins
- formalin test pain response (mice [1]; 10 mg/kg, first column group (1st phase, not given)): 73.0
- formalin test pain response (mice [1]; 10 mg/kg, second column group (2nd phase, not given)): 102.0
- formalin test pain response (mice [1]; 20 mg/kg, first column group (1st phase, not given)): 54.7
- formalin test pain response (mice [1]; 20 mg/kg, second column group (2nd phase, not given)): 83.5
- formalin test pain response (mice [1]; 40 mg/kg, first column group (1st phase, not given)): 62.0
- formalin test pain response (mice [1]; 40 mg/kg, second column group (2nd phase, not given)): 60.0
- formalin test pain response (mice [1]; 80 mg/kg, first column group (1st phase, not given)): 61.5
- formalin test pain response (mice [1]; 80 mg/kg, second column group (2nd phase, not given)): 60.0
- analgesic efficacy in formalin test (in words) (mice [1]; 10, 20, 40, 80 mg/kg): observed in the 2n^d phase
- cell toxicity (cell viability, MTS) (Raw 264.7 cells): no cell toxicities were observed
- threshold values (Von-frey test) ([2]; oral 10 mg/kg): 0.186
- threshold values (Von-frey test) ([2]; oral 20 mg/kg): 0.208
- threshold values (Von-frey test) ([2]; oral 40 mg/kg): 0.190
- threshold values (Von-frey test) ([2]; oral 80 mg/kg): 0.186
- analgesic efficacy, Von-frey test (in words) ([2]; oral 10, 20, 40, 80 mg/kg): concentration-dependent until 2-3 h after treatment
- concentration of highest analgesic efficacy, Von-frey test ([2]; oral 10, 20, 40, 80 mg/kg tested): 80 mg/kg
- numbers of stretching and writhing movements (mice [3]; 10 mg/kg): 8.25
- numbers of stretching and writhing movements (mice [3]; 20 mg/kg): 13.75
- numbers of stretching and writhing movements (mice [3]; 40 mg/kg): 11.25
- numbers of stretching and writhing movements (mice [3]; 80 mg/kg): 12.25
- concentration of best analgesic efficacy in writhing test (mice [3]; 10, 20, 40, 80 mg/kg tested): 10 mg/kg
- response time to the thermal stimulus (hot-plate) (mice [4]; 10 mg/kg): 9.58
- response time to the thermal stimulus (hot-plate) (mice [4]; 20 mg/kg): 14.98
- response time to the thermal stimulus (hot-plate) (mice [4]; 40 mg/kg): 17.42
- response time to the thermal stimulus (hot-plate) (mice [4]; 80 mg/kg): 18.30
- analgesic efficacy in hot-plate test (in words) (mice [4]; 10, 20, 40, 80 mg/kg): observed in the 2nd phase

Source: patent US11396511B2, “Substituted 9,13b-dihydro-1H-dibenzo[c,f]imidazo[1,5-a]azepin-3-ylbenzamides as anti-inflammatory and analgesic agents” (FRONTBIO CO., LTD., priority 2017, dated 2022)
